Results published in patent publication US20090209578A1, “CHEMICAL COMPOUNDS” (PFIZER INC, priority 2005, published 2009).

These compounds were tested against HIV-1 fusion (gp160 induced cell-cell fusion; HeLa P4 cell line expressing CCR5 and CD4 / CHO-Tat10 cell line) (Homo sapiens, UniProt P51681) (assay: gp160 induced cell-cell fusion assay). Conditions: HeLa P4 / CHO-Tat10 cells, read-out: IC50.
Assay type: cell-based
Description: Biol., 60, 147-52 (1996); and/or by using the intracellular calcium mobilisation assays as described by the same authors, and/or inhibiting cell fusion following procedures disclosed in Bradley et al., J Biomol Screen 9, 516-24 (2004).
The gp160 induced cell-cell fusion assay uses a HeLa P4 cell line and a CHO-Tat10 cell line.
The HeLa P4 cell line expresses CCR5 and CD4 and has been transfected with HIV-1 LTR-β-Galactosidase. The media for this cell line is Dulbecco modified eagle's medium (D-MEM) (without L-glutamine) containing 10% foetal calf serum (FCS), 2 mM L-glutamine, penicillin/streptomycin (Pen/Strep; 100 U/mL penicillin+[…] streptomycin), and 1 μg/ml puromycin.
The CHO cell line is a Tat (transcriptional trans activator)-expressing clone from a CHO JRR17.1 cell line that has been transfected with pTat puro plasmid. The media for this cell line is rich medium for mammalian cell culture originally developed at Roswell Park Memorial Institute RPMI1640 (without L-glutamine) containing 10% FCS, 2 mM L-glutamine, 0.5 mg/ml Hygromycin B and 12 µg/ml puromycin. The CHO JRR17.1 line expresses gp160 (JRFL) and is a clone that has been selected for its ability to fuse with a CCR5/CD4 expressing cell line.
Upon cell fusion, Tat present in the CHO cell is able to transactivate the HIV-1 long terminal repeat (LTR) present in the HeLa cell leading to the expression of the β-Galactosidase enzyme. This expression is then measured using a Fluor Ace™ β-Galactosidase reporter assay kit (Bio-Rad cat no. 170-3150). This kit is a quantitative fluorescent assay that determines the level of expression of β-galactosidase using 4-methylumbelliferyl-galactopyranoside (MUG) as substrate. β-Galactosidase hydrolyses the fluorogenic substrate resulting in release of the fluorescent molecule 4-methylumbelliferone (4MU). Fluorescence of 4-methylumbelliferone is then measured on a fluorometer using an excitation wavelength of 360 nm and emission wavelength of 460 nm.
Compounds that inhibit fusion will give rise to a reduced signal and, following solubilisation in an appropriate solvent and dilution in culture medium, a dose-response curve for each compound can be used to calculate IC50 values.

Sequence of HIV-1 fusion (gp160 induced cell-cell fusion; HeLa P4 cell line expressing CCR5 and CD4 / CHO-Tat10 cell line) (P51681 whole entry, the tested form may be a part): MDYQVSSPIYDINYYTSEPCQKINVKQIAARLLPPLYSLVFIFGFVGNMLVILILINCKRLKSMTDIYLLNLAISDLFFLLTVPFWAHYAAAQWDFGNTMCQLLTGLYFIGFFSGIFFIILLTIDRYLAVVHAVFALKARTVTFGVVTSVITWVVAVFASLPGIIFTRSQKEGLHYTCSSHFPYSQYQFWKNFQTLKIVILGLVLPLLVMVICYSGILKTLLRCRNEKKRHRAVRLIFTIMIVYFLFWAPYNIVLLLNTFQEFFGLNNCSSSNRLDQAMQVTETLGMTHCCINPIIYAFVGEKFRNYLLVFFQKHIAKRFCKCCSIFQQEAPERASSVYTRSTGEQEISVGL

Row | SMILES | IC50
1 | Cc1nc2c(n1C1CCN(C(C)C[C@H](NC(=O)C3(C)CC3)c3ccccc3)CC1)CN(C(=O)C(C)C)CC2 (some centres unmarked) [Example 27] | 115 nM
2 | CC(=O)N1CCc2nc(C)n(C3CCN(C(C)C[C@H](NC(=O)C4(C)CC4)c4cccc(F)c4)CC3)c2C1 (some centres unmarked) [Example 48] | 0.8 nM
3 | CC(=O)N1CCc2nc(C)n(C3CCN(C(C)C[C@H](NC(=O)C4CCC4(F)F)c4cccc(F)c4)CC3)c2C1 (some centres unmarked) [Example 49] | 0.4 nM
4 | CC(=O)N1CCc2nc(C)n(C3CCN(C(C)C[C@H](NC(=O)C4CCOCC4)c4cccc(F)c4)CC3)c2C1 (some centres unmarked) [Example 52] | 1 nM
5 | CC(=O)N1CCc2nc(C)n(C3CCN(C(C)C[C@H](NC(=O)C4CCC4(F)F)c4ccccc4)CC3)c2C1 (some centres unmarked) [Example 53] | 0.5 nM
6 | CC(=O)N1CCc2nc(C)n(C3CCN(C(C)C[C@H](NC(=O)C4CCC(F)(F)CC4)c4ccccc4)CC3)c2C1 (some centres unmarked) [Example 54] | 0.4 nM
7 | CC(=O)N1CCc2nc(C)n(C3CCN(C(C)C[C@H](NC(=O)C4(C)CC4)c4ccccc4)CC3)c2C1 (some centres unmarked) [Example 55] | 0.3 nM
8 | CC(=O)N1CCc2nc(C)n(C3CCN(C(C)C[C@H](NC(=O)C4CCC4)c4cccc(F)c4)CC3)c2C1 (some centres unmarked) [Example 57] | 0.2 nM
9 | COC(=O)N[C@@H](CC(C)N1CCC(n2c(C)nc3c2CN(C(C)=O)CC3)CC1)c1cccc(F)c1 (some centres unmarked) [Example 59] | 13 nM
10 | CC(=O)N1CCc2nc(C)n(C3CCN(C(C)C[C@H](NC(=O)C4CC4)c4cccc(F)c4)CC3)c2C1 (some centres unmarked) [Example 60] | 0.6 nM
11 | CC(=O)N1CCc2nc(C)n(C3CCN(C(C)C[C@H](NC(=O)OC(C)C)c4cccc(F)c4)CC3)c2C1 (some centres unmarked) [Example 61] | 1.6 nM
12 | CC(=O)N1CCc2nc(C)n(C3CCN(C(C)C[C@H](NC(=O)OC(C)C)c4ccccc4)CC3)c2C1 (some centres unmarked) [Example 63] | 1.8 nM
13 | CC(=O)N[C@@H](CC(C)N1CCC(n2c(C)nc3c2CN(C(=O)C(C)C)CC3)CC1)c1cccc(F)c1 (some centres unmarked) [Example 64] | 2 nM
14 | CCC(=O)N[C@@H](CC(C)N1CCC(n2c(C)nc3c2CN(C(=O)C(C)C)CC3)CC1)c1cccc(F)c1 (some centres unmarked) [Example 65] | 0.6 nM
15 | CCOC(=O)N1CCc2nc(C)n(C3CCN(C(C)C[C@H](NC(C)=O)c4cccc(F)c4)CC3)c2C1 (stereo partly drawn) [Example 66, Ethyl 3-{1-[(3S)-3-(acetylamino)-3-(3-fluorophenyl)-1-methylpropyl]piperidin-4-yl}-2-methyl-3,4,6,7-tetrahydro-5H-imidazo[4,5-c]pyridine-5-carboxylate] | 3.5 nM
16 | CCC(=O)N[C@@H](CC(C)N1CCC(n2c(C)nc3c2CN(C(=O)OC)CC3)CC1)c1cccc(F)c1 (some centres unmarked) [Example 67] | 0.2 nM
17 | CCCC(=O)N[C@@H](CC(C)N1CCC(n2c(C)nc3c2CN(C(=O)OC)CC3)CC1)c1cccc(F)c1 (stereo partly drawn) [Example 69, Methyl 3-{1-[(3S)-3-(butyrylamino)-3-(3-fluorophenyl)-1-methylpropyl]piperidin-4-yl}-2-methyl-3,4,6,7-tetrahydro-5H-imidazo[4,5-c]pyridine-5-carboxylate] | 0.2 nM
18 | COC(=O)N1CCc2c(nc(C)n2C2CCN(C(C)C[C@H](NC(=O)C3CC(F)(F)C3)c3cccc(F)c3)CC2)C1 (stereo partly drawn) [Example 80, Methyl 1-{1-[(3S)-3-{[(3,3-difluorocyclobutyl)carbonyl]amino}-3-(3-fluorophenyl)-1-methylpropyl]piperidin-4-yl}-2-methyl-1,4,6,7-tetrahydro-5H-imidazo[4,5-c]pyridine-5-carboxylate] | 0.2 nM
19 | CCC(=O)N[C@@H](CC(C)N1CCC(n2c(C)nc3c2CCN(C(=O)OC)C3)CC1)c1cccc(F)c1 (some centres unmarked) [Example 91] | 102 nM
20 | CC(=O)N1CCc2c(nc(C)n2C2CCN(C(C)C[C@H](NC(=O)C3CC3)c3cccc(F)c3)CC2)C1 (some centres unmarked) [Example 103] | 0.2 nM
21 | CC(C)c1noc(C2CCN(C(C)C[C@H](NC(=O)C3CCC3)c3ccccc3)CC2)n1 (stereo partly drawn) [Example 105, N-{(1S)-3-[4-(3-isoPropyl-1,2,4-oxadiazol-5-yl)piperidin-1-yl]-1-phenylbutyl}cyclobutanecarboxamide] | 94.6 nM
22 | CC(C)c1nccn1C1CCN(C(C)C[C@H](NC(=O)C2CCC(F)(F)CC2)c2ccccc2)CC1 (stereo partly drawn) [Example 111, 4,4-Difluoro-N-{(1S)-3-[4-(2-isopropyl-1H-imidazol-1-yl)piperidin-1-yl]-1-phenylbutyl}cyclohexanecarboxamide] | 0.2 nM
23 | Cc1nccn1C1CCN(C(C)C[C@H](NC(=O)C2CCC(F)(F)CC2)c2ccccc2)CC1 (stereo partly drawn) [Example 112, 4,4-Difluoro-N-{(1S)-3-[4-(2-methyl-1H-imidazol-1-yl)piperidin-1-yl]-1-phenylbutyl}cyclohexanecarboxamide] | 1 nM

Same assay, conditions: IC50 (nM), HeLa P4 / CHO-Tat10 cells

Row | SMILES | IC50
24 | CCCC(=O)N[C@@H](CC(C)N1CCC(n2c(C)nc3c2CN(C(C)=O)CC3)CC1)c1ccccc1 (stereo partly drawn) [Example 56, N-{(1S)-3-[4-(5-acetyl-2-methyl-4,5,6,7-tetrahydro-3H-imidazo[4,5-c]pyridin-3-yl)piperidin-1-yl]-1-phenylbutyl}butanamide] | 1.2 nM
25 | CC(=O)N1CCc2nc(C)n(C3CCN(C(C)C[C@H](NC(=O)C(C)C)c4cccc(F)c4)CC3)c2C1 (stereo partly drawn) [Example 58, N-[(1S)-3-[4-(5-acetyl-2-methyl-4,5,6,7-tetrahydro-3H-imidazo[4,5-c]pyridin-3-yl)piperidin-1-yl]-1-(3-fluorophenyl)butyl]-2-methylpropanamide] | 0.5 nM
26 | CCC(=O)N[C@@H](CC(C)N1CCC(n2c(C)nc3c2CN(C(C)=O)CC3)CC1)c1cccc(F)c1 (stereo partly drawn) [Example 62, N-[(1S)-3-[4-(5-acetyl-2-methyl-4,5,6,7-tetrahydro-3H-imidazo[4,5-c]pyridin-3-yl)piperidin-1-yl]-1-(3-fluorophenyl)butyl]propanamide] | 1 nM
27 | CCC(=O)N[C@@H](CC(C)N1CCC(n2c(C)nc3c2CCN(C(=O)OC)C3)CC1)c1ccccc1 (stereo partly drawn) [Example 92, methyl 2-methyl-1-{1-[(3S)-1-methyl-3-phenyl-3-(propionylamino)propyl]piperidin-4-yl}-1,4,6,7-tetrahydro-5H-imidazo[4,5-c]pyridine-5-carboxylate] | 0.4 nM
28 | CC(=O)N1CCc2c(nc(C)n2C2CCN(C(C)C[C@H](NC(=O)C(C)C)c3cccc(F)c3)CC2)C1 (stereo partly drawn) [Example 94, N-[(1S)-3-[4-(5-acetyl-2-methyl-4,5,6,7-tetrahydro-1H-imidazo[4,5-c]pyridin-1-yl)piperidin-1-yl]-1-(3-fluorophenyl)butyl]-2-methylpropanamide] | 0.2 nM
29 | CCC(=O)N[C@@H](CC(C)N1CCC(n2c(C)nc3c2CCN(C(C)=O)C3)CC1)c1cccc(F)c1 (stereo partly drawn) [Example 104, N-[(1S)-3-[4-(5-acetyl-2-methyl-4,5,6,7-tetrahydro-1H-imidazo[4,5-c]pyridin-1-yl)piperidin-1-yl]-1-(3-fluorophenyl)butyl]propanamide] | 0.8 nM
